Measured values taken from publication PMC2871279 (Nature, 2009).

What was measured:
dvUT [1] = target: T1, dvUT (Nitratidesulfovibrio vulgaris, UniProt Q72CX3); assay: […]-urea uptake in Xenopus oocytes; format: cell-based; conditions: read-out: % inhibition at 1 mM
T1 sequence (Q72CX3 1-337): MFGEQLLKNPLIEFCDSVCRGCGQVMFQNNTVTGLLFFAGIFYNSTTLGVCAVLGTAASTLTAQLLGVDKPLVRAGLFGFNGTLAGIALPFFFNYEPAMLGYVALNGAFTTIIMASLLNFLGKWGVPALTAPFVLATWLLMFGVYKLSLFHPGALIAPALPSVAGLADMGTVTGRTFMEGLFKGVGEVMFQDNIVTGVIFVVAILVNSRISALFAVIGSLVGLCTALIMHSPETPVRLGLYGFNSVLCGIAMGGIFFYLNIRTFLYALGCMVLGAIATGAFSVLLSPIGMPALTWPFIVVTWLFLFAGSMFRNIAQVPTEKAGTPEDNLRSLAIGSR

human UT-B = target: T2, human UT-B (Homo sapiens, UniProt Q13336); assay: […]-urea uptake in Xenopus oocytes; format: cell-based; conditions: read-out: % inhibition at 1 mM
T2 sequence (Q13336 1-389): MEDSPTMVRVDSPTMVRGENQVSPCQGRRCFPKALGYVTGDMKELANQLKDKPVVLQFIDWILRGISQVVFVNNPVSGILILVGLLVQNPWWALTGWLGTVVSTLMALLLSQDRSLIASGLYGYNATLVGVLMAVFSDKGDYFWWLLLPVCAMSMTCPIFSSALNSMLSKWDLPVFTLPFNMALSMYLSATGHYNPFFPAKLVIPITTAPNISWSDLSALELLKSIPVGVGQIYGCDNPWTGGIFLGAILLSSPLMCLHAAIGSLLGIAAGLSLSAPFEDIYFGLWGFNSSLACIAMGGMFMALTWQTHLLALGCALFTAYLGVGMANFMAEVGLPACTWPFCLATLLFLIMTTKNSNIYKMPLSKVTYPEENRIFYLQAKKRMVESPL

dvUT [2] = target: T1, dvUT; assay: scintillation proximity saturation binding, Hill fit
dvUT [3] = target: T1, dvUT; assay: SPA isotopic dilution of […]-urea; format: binding

inhibition at 1000 µM (dvUT [1]) [%]	inhibition at 1000 µM (human UT-B) [%]	Kd (dvUT [2]) [µM]	IC50 (dvUT [3]) [µM]	SMILES
87	86	–	–	O=C(CCc1ccc(O)cc1)c1c(O)cc(O)cc1O [phloretin]
–	–	2300 ± 140	2300 ± 700	NC(N)=O [urea]
